Earlier results on four compounds are cited in US20080312310A1, “Compounds, Compositions and Methods” (Cytokinetics, Inc., priority 2002, published 2008).

In general, GI50 refers to the concentration at which growth is held to half of that of the control.

For the data set, the system named is A549 cells. The note with it: data provided by National Cancer Institute, Developmental Therapeutic Program.
As to `CC(=O)O[C@H]1C(=O)[C@@]2(C)[C@H]([C@H](OC(=O)c3ccccc3)[C@]3(O)C[C@H](OC(=O)[C@H](O)[C@@H](NC(=O)c4ccccc4)c4ccccc4)C(C)=C1C3(C)C)[C@]1(OC(C)=O)CO[C@@H]1C[C@@H]2O` [paclitaxel], the GI50 was 0.004 µM.

As for `O=c1[nH]cc(F)c(=O)[nH]1` [5-fluorouracil], the GI50 was 1 µM.

Regarding `NC(=O)NO` [hydroxyurea], the GI50 was 500 µM.

Regarding `COc1cccc2c1C(=O)c1c(O)c3c(c(O)c1C2=O)C[C@@](O)(C(=O)CO)C[C@@H]3O[C@H]1C[C@H](N)[C@H](O)[C@H](C)O1` [doxorubicin], the GI50 is 0.063 µM.
